Measurements: article PMC12067442 (Journal of Medicinal Chemistry, 2025)
Where “and” joins values, the source holds several entries; their conditions need not be identical. Equal values may be shown once. One block for each compound: values may come before it.

Legend:
[1] = target: T1, norepinephrine transporter (NET, SLC6A2) (Homo sapiens, UniProt P23975); assay: radioligand displacement assay on NET (Eurofins Cerep SA); assay type: binding; conditions: for inhibition at 10 µM: read-out: % Inhibition @ 10 µM on NET; for inhibition at 0.01 µM: read-out: % Inhibition @ 10 nM on NET; for inhibition at 0.1 µM: read-out: % Inhibition @ 100 nM on NET
T1 construct: purchased Eurofins Cerep SA
T1 sequence (P23975 whole entry): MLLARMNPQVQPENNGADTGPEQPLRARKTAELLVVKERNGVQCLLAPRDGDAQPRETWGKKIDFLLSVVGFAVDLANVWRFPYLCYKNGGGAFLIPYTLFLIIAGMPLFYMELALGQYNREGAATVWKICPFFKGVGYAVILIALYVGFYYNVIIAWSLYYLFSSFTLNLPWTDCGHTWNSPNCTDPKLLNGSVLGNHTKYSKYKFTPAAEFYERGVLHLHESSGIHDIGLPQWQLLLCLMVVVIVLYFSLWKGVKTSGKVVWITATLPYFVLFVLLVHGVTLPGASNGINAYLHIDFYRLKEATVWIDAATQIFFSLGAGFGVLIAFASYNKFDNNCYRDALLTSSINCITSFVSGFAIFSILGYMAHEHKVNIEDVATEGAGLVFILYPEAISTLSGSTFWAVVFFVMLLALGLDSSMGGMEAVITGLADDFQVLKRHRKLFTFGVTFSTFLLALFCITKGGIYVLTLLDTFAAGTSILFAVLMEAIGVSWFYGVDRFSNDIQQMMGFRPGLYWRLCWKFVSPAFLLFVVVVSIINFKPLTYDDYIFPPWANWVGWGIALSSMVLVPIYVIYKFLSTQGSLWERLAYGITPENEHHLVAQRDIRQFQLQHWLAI

[2] = target: T2, dopamine transporter (DAT, SLC6A3) (Homo sapiens, UniProt Q01959); assay: radioligand displacement assay on DAT (Eurofins Cerep SA); assay type: binding; conditions: for inhibition at 10 µM: read-out: % Inhibition @ 10 µM on DAT; for inhibition at 0.1 µM: read-out: % Inhibition @ 100 nM on DAT
T2 construct: purchased Eurofins Cerep SA
T2 sequence (Q01959 whole entry): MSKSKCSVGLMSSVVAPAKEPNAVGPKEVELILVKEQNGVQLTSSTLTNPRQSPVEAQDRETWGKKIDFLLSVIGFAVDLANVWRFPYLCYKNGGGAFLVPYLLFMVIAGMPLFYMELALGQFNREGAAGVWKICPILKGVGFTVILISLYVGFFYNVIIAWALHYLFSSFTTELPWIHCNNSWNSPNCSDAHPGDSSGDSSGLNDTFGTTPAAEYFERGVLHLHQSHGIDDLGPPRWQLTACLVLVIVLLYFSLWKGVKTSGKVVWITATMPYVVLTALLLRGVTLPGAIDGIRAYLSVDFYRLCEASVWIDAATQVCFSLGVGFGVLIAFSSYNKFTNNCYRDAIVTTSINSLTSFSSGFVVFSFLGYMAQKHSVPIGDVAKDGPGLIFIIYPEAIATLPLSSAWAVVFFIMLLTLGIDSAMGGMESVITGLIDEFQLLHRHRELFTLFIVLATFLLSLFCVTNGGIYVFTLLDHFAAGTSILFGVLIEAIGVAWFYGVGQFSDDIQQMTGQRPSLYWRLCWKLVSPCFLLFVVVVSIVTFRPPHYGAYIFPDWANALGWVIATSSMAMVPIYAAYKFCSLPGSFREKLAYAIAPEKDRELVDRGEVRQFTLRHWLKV

[3] = target: T3, serotonine (5-HT) transporter (SERT, SLC6A4) (Homo sapiens, UniProt P31645); assay: radioligand displacement assay on SERT (Eurofins Cerep SA); assay type: binding; conditions: for inhibition at 10 µM: read-out: % Inhibition @ 10 µM on SERT; for inhibition at 0.1 µM: read-out: % Inhibition @ 100 nM on SERT
T3 construct: purchased Eurofins Cerep SA
T3 sequence (P31645 whole entry): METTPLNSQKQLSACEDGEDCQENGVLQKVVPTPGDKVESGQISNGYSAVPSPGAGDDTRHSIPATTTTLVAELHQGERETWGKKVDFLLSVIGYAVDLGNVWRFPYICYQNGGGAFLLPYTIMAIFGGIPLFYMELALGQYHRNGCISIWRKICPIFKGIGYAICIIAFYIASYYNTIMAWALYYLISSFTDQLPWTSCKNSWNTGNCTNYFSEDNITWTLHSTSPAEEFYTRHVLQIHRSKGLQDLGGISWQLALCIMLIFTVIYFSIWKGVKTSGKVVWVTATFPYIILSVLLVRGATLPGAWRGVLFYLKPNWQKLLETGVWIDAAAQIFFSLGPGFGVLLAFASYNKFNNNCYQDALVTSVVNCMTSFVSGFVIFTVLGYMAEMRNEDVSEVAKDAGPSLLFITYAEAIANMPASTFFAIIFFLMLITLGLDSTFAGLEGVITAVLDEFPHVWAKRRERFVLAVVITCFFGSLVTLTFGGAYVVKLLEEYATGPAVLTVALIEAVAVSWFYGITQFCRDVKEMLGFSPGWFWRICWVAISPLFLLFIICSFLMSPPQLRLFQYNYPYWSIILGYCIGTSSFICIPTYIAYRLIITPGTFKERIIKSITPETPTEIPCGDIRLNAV

[4] = tested on: dopamine (DA) uptake in PC12 cells; assay: cells; conditions: Rattus norvegicus, PC-12, 2 h, read-out: IC50 (nM) - DA Uptake Inhibition
From the text: The system was operated in positive mode. […] MS peaks were quantified using a calibration curve.

σ-1R = target: T4, σ-1R (Homo sapiens, UniProt Q99720); assay: radioligand displacement assay on σ-1R (Eurofins Cerep SA); assay type: binding; conditions: estimated from duplicate dilution series; read-out: IC50 (nM) sigma-1R
T4 construct: purchased Eurofins Cerep SA
T4 sequence (Q99720 whole entry, species assumed): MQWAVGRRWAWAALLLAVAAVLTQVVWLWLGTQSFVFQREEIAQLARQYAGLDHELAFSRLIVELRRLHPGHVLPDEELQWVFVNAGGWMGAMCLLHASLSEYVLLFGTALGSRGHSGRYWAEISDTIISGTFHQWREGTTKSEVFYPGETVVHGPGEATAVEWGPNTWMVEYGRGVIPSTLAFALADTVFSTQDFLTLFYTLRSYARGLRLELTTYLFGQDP

ACHe = target: T5, ACHe (Homo sapiens, UniProt P22303); assay: in vitro polypharmacology panel: ACHe; assay type: binding
T5 construct: purchased Eurofins Cerep SA

Cannabinoid = target: T6, Cannabinoid (Homo sapiens, UniProt P21554); assay: in vitro polypharmacology panel: Cannabinoid; assay type: binding
T6 construct: purchased Eurofins Cerep SA

Cannabinoid 2 = target: T7, Cannabinoid 2 (Homo sapiens, UniProt P34972); assay: in vitro polypharmacology panel: Cannabinoid 2; assay type: binding
T7 construct: purchased Eurofins Cerep SA

HEK-Gly-RA1 = target: T8, HEK-Gly-RA1 (Homo sapiens, UniProt P23415); assay: in vitro polypharmacology panel: HEK-Gly-RA1; assay type: binding
T8 construct: host or cells: HEK
T8 sequence (P23415 29-457): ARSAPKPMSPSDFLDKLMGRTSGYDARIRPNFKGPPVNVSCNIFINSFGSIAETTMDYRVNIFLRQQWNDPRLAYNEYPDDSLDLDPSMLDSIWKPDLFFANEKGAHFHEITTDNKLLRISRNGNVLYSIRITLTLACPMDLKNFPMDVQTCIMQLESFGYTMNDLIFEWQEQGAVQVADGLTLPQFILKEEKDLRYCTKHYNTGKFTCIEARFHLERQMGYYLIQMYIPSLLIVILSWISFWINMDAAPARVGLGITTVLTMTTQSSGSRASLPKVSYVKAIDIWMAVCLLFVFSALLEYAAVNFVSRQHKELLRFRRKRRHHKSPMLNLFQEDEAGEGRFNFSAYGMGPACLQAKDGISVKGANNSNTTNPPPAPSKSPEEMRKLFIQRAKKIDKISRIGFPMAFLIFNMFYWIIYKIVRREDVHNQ

Dopamine D1 = target: T9, Dopamine D1 (Homo sapiens, UniProt P21728); assay: in vitro polypharmacology panel: Dopamine D1; assay type: binding
T9 construct: purchased Eurofins Cerep SA
T9 sequence (P21728 whole entry): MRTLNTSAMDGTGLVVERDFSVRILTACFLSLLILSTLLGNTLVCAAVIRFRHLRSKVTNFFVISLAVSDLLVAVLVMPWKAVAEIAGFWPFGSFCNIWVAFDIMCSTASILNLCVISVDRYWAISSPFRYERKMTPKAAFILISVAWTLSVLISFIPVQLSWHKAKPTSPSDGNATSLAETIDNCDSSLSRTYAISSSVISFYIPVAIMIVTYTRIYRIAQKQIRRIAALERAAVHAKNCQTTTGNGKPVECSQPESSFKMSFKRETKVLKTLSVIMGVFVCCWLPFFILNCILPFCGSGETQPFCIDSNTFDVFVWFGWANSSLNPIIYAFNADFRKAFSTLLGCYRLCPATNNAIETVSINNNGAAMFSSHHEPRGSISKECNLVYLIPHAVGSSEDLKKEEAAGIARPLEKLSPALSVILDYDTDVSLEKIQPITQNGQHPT

Dopamine D2s = target: T10, Dopamine D2s (Homo sapiens, UniProt P14416); assay: in vitro polypharmacology panel: Dopamine D2s; assay type: binding
T10 construct: purchased Eurofins Cerep SA

Dopamine D2L = target: T11, Dopamine D2L (Homo sapiens, UniProt P14416); assay: in vitro polypharmacology panel: Dopamine D2L; assay type: binding
T11 construct: purchased Eurofins Cerep SA

Dopamine D3 = target: T12, Dopamine D3 (Homo sapiens, UniProt P35462); assay: in vitro polypharmacology panel: Dopamine D3; assay type: binding
T12 construct: purchased Eurofins Cerep SA

hERG = target: T13, hERG (Homo sapiens, UniProt Q12809); assay: in vitro polypharmacology panel: hERG; assay type: binding
T13 construct: purchased Eurofins Cerep SA

Histaminic H1 = target: T14, Histaminic H1 (Homo sapiens, UniProt P35367); assay: in vitro polypharmacology panel: Histaminic H1; assay type: binding
T14 construct: purchased Eurofins Cerep SA
T14 sequence (P35367 whole entry): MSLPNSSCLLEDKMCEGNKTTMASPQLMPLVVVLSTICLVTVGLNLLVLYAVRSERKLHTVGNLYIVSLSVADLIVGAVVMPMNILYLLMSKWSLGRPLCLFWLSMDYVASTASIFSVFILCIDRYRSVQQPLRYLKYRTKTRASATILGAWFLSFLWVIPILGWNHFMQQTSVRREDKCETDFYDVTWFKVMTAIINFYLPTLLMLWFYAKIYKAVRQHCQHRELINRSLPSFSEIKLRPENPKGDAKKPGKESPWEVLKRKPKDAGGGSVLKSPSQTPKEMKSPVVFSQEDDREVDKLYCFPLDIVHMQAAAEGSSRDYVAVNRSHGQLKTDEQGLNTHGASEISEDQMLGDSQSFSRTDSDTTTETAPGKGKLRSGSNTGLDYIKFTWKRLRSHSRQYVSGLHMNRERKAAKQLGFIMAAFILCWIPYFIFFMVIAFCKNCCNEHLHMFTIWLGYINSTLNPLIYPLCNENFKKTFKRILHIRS

Histaminic H2 = target: T15, Histaminic H2 (Homo sapiens, UniProt P25021); assay: in vitro polypharmacology panel: Histaminic H2; assay type: binding
T15 construct: purchased Eurofins Cerep SA
T15 sequence (P25021 whole entry): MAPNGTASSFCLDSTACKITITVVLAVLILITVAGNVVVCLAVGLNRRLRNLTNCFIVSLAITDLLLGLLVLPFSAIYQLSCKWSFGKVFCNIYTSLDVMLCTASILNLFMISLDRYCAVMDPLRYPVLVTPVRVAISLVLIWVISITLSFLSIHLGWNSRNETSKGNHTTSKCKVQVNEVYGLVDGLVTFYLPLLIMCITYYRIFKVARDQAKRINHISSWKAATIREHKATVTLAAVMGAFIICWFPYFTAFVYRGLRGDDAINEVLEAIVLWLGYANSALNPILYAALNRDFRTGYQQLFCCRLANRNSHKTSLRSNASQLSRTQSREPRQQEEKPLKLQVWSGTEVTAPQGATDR

Histaminic H3 = target: T16, Histaminic H3 (Homo sapiens, UniProt Q9Y5N1); assay: in vitro polypharmacology panel: Histaminic H3; assay type: binding
T16 construct: purchased Eurofins Cerep SA

Muscarinic M1 = target: T17, Muscarinic M1 (Homo sapiens, UniProt P11229); assay: in vitro polypharmacology panel: Muscarinic M1; assay type: binding
T17 construct: purchased Eurofins Cerep SA

Muscarinic M2 = target: T18, Muscarinic M2 (Homo sapiens, UniProt P08172); assay: in vitro polypharmacology panel: Muscarinic M2; assay type: binding
T18 construct: purchased Eurofins Cerep SA
T18 sequence (P08172 whole entry): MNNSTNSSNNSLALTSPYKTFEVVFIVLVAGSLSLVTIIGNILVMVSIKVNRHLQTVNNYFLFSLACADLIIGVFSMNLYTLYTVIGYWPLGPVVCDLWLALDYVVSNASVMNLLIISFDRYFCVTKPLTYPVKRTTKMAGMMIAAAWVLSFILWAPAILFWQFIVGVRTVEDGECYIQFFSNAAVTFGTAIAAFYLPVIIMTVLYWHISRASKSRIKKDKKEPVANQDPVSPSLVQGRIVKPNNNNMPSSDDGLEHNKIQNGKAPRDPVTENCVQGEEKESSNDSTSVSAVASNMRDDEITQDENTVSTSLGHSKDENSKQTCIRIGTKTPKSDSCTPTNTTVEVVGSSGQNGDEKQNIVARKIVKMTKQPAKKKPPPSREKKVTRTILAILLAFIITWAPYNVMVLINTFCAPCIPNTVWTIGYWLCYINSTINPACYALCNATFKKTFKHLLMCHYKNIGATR

Serotonin 5-HT 1A = target: T19, Serotonin 5-HT 1A (Homo sapiens, UniProt P08908); assay: in vitro polypharmacology panel: Serotonin 5-HT 1A; assay type: binding
T19 construct: purchased Eurofins Cerep SA

Serotonin 5-HT 1B = target: T20, Serotonin 5-HT 1B (Homo sapiens, UniProt P28222); assay: in vitro polypharmacology panel: Serotonin 5-HT 1B; assay type: binding
T20 construct: purchased Eurofins Cerep SA

Serotonin 5-HT 2A = target: T21, Serotonin 5-HT 2A (Homo sapiens, UniProt P28223); assay: in vitro polypharmacology panel: Serotonin 5-HT 2A; assay type: binding
T21 construct: Eurofins Cerep SA (France), contract assay

Serotonin 5-HT 2B = target: T22, Serotonin 5-HT 2B (Homo sapiens, UniProt P41595); assay: in vitro polypharmacology panel: Serotonin 5-HT 2B; assay type: binding
T22 construct: Eurofins Cerep SA (France), contract assay
T22 sequence (P41595 whole entry): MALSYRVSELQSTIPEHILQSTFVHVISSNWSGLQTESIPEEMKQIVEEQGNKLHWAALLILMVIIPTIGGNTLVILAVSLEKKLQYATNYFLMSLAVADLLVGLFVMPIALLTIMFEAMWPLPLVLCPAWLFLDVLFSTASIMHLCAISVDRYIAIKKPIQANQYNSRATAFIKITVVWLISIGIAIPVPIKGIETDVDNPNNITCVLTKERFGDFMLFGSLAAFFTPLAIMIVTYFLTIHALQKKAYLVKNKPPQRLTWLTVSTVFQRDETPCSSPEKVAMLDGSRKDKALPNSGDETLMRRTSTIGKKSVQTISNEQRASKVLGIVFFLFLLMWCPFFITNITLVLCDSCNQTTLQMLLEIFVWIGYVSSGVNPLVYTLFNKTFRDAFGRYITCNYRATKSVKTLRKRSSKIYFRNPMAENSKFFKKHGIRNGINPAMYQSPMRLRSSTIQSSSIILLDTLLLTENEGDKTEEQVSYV

Serotonin 5-HT 3 = target: T23, Serotonin 5-HT 3 (Homo sapiens, UniProt P46098); assay: in vitro polypharmacology panel: Serotonin 5-HT 3; assay type: binding
T23 construct: Eurofins Cerep SA (France), contract assay

mice = assay: observation of mice after acute i.p. administration; assay type: in vivo, C57Bl6/J mice; conditions: 1.0 or 10 mg/kg i.p., male mice
From the text: Fresh bedding and environmental enrichment were provided weekly.

in vivo = conditions: both, C57BL/6JRJ, mouse, 5 mg/kg

Compound: c1ccc(CN2CCCC[C@H]3NCCC[C@H]32)cc1 [40a, 5-Benzyldecahydro-1H-pyrido[3,2-b]azepine]
inhibition at 10 µM [1]: 88.7%
inhibition at 10 µM [2]: 94.4%
inhibition at 10 µM [3]: 91%

Compound: c1ccc(CN2CCC[C@H]3NCCCC[C@H]32)cc1 (relative stereo) [27a, 1-Benzyldecahydro-1H-pyrido[3,2-b]azepine]
inhibition at 10 µM [1]: 13.9%
inhibition at 10 µM [2]: 85.5%
inhibition at 10 µM [3]: 87.7%

IC50 [4]: 11 ± 2.3 nM
Compound: Clc1ccc2c(c1)C(N1CCNCC1)=Nc1ccccc1O2 [Amox, amoxapine]

Compound: C1CC[C@H]2NCC[C@H]2NC1 (relative stereo) [2a, Decahydropyrrolo[3,2-b]azepine]
inhibition at 10 µM [1]: 1.7%
inhibition at 10 µM [2]: 6.4%
inhibition at 10 µM [3]: 7.6%

Compound: c1ccc(CN2CCCC[C@@H]3NCCCC[C@H]32)cc1 [44b, 6-Benzyldodecahydroazepino[3,2-b]azepine]
inhibition at 10 µM [1]: 31.5%
inhibition at 10 µM [2]: 74.9%
inhibition at 10 µM [3]: 59.4%

Compound: C1CC[C@@H]2NCC[C@H]2NC1 (relative stereo) [2b, Decahydropyrrolo[3,2-b]azepine]
inhibition at 10 µM [1]: 3%
inhibition at 10 µM [2]: 13.6%
inhibition at 10 µM [3]: -1.9%

Compound: c1ccc(CN2CCCC[C@@H]3NCCC[C@H]32)cc1 [40b, 5-Benzyldecahydro-1H-pyrido[3,2-b]azepine]
inhibition at 10 µM [1]: 60%
inhibition at 10 µM [2]: 41%
inhibition at 10 µM [3]: 71%

Compound: c1ccc(CN2CCCC[C@@H]3NCC[C@@H]32)cc1 [(S,S)-1a, (3aS,8aS)-4-Benzyldecahydropyrrolo[3,2-b]azepine]
inhibition at 10 µM [2]: 94.4%
inhibition at 10 µM [3]: 91%

Compound: c1ccc(CN2CC[C@H]3NCCCC[C@H]32)cc1 (relative stereo) [17a, 1-Benzyldecahydropyrrolo[3,2-b]azepine]
inhibition at 10 µM [1]: 21.7%
inhibition at 10 µM [2]: 78.3%
inhibition at 10 µM [3]: 21.4%

Compound: c1ccc(CN2CC[C@H]3NCCCC[C@@H]32)cc1 (relative stereo) [17b, 1-Benzyldecahydropyrrolo[3,2-b]azepine]
inhibition at 10 µM [1]: 10.8%
inhibition at 10 µM [2]: 89%
inhibition at 10 µM [3]: 13.7%

Compound: Clc1ccccc1CN1CCCC[C@H]2NCC[C@H]21 [(R,R)-60, (3aR,8aR)-4-(2-Chlorobenzyl)decahydropyrrolo[3,2-b]azepine]
inhibition at 0.01 µM [1]: 24%
inhibition at 0.1 µM [1]: 83.4%
inhibition at 0.1 µM [2]: 37.5%
inhibition at 0.1 µM [3]: 69.1%

Compound: COc1ccc(C(CN(C)C)C2(O)CCCCC2)cc1 (stereo not shown) [Venla, venlafaxine]
IC50 [4]: 1340 ± 128 nM

Compound: Clc1cccc(CN2CCCC[C@H]3NCC[C@H]32)c1 [(R,R)-59, (3aR,8aR)-4-(3-chlorobenzyl)decahydropyrrolo[3,2-b]azepine]
inhibition at 0.01 µM [1]: 55.9%
inhibition at 0.1 µM [1]: 97.1%
inhibition at 0.1 µM [2]: 74.9%
inhibition at 0.1 µM [3]: 98%

Compound: (3aR,8aR)-4-(2,3-Dichlorobenzyl)decahydropyrrolo[3,2-b]azepine [(R,R)-62]
% Inhibition @ 10 nM on NET [1]: 74.8%
% Inhibition @ 100 nM on NET [1]: 96.4%
% Inhibition @ 100 nM on DAT [2]: 15.4%
% Inhibition @ 100 nM on SERT [3]: 97.8%

Compound: c1ccc(CN2CCCC[C@H]3NCC[C@H]32)cc1 [(R,R)-1a, (3aR,8aR)-4-Benzyldecahydropyrrolo[3,2-b]azepine]
IC50 [2]: 230 ± 12 nM
inhibition at 0.1 µM [2]: 29.8%
inhibition at 10 µM [2]: 97.2%
IC50 [3]: 250 ± 32 nM
inhibition at 0.1 µM [3]: 26.3%
inhibition at 10 µM [3]: 95.9%
IC50 (σ-1R): ~110 nM and 110 nM
ACHe (5 µM) (ACHe): 3.8
Cannabinoid (5 µM) (Cannabinoid): -13.4
Cannabinoid 2 (5 µM) (Cannabinoid 2): 11.9
HEK-Gly-RA1 (5 µM) (HEK-Gly-RA1): 4
Dopamine D1 (5 µM) (Dopamine D1): 3.5
Dopamine D2s (5 µM) (Dopamine D2s): 11.7
Dopamine D2L (5 µM) (Dopamine D2L): -0.3
Dopamine D3 (5 µM) (Dopamine D3): 6.1
hERG (5 µM) (hERG): 12.2
Histaminic H1 (5 µM) (Histaminic H1): -4.3
Histaminic H2 (Histaminic H2): -2
Histaminic H3 (5 µM) (Histaminic H3): 8.6
Muscarinic M1 (5 µM) (Muscarinic M1): 78.7
Muscarinic M2 (5 µM) (Muscarinic M2): 28.5
Serotonin 5-HT 1A (5 µM) (Serotonin 5-HT 1A): 18.9
Serotonin 5-HT 1B (5 µM) (Serotonin 5-HT 1B): -19.8
Serotonin 5-HT 2A (5 µM) (Serotonin 5-HT 2A): -0.9
Serotonin 5-HT 2B (5 µM) (Serotonin 5-HT 2B): 29.7
Serotonin 5-HT 3 (5 µM) (Serotonin 5-HT 3): 5.2
phenotype upon acute treatment (mice; already after 40 min): pronounced sedative or lethargic phenotype
signs of acute toxicity (piloerection, hunched posture, convulsions, gastrointestinal distress) (mice): no signs of acute toxicity
AUC (in vivo; iv): 799 ng·h/mL
AUC (in vivo; po): 36.6 ng·h/mL
Tmax (in vivo; po): 15 min

Compound: C1CC[C@@H]2NCCC[C@H]2NC1 (relative stereo) [3b]
inhibition at 10 µM [1]: 8.8%
inhibition at 10 µM [2]: -5.2%
inhibition at 10 µM [3]: 11.8%

Compound: c1ccc(CN2CCCC[C@@H]3NCC[C@H]32)cc1 [1b, 4-Benzyldecahydropyrrolo[3,2-b]azepine]
inhibition at 10 µM [2]: 81.8%
inhibition at 10 µM [3]: 68.6%

Compound: c1ccc(CN2CCC[C@H]3NCCCC[C@@H]32)cc1 (relative stereo) [27b, 1-Benzyldecahydro-1H-pyrido[3,2-b]azepine]
inhibition at 10 µM [1]: -5.1%
inhibition at 10 µM [2]: 19.4%
inhibition at 10 µM [3]: 6.9%

Compound: Brc1cccc(CN2CCCC[C@H]3NCC[C@H]32)c1 [(R,R)-61, (3aR,8aR)-4-(3-Bromobenzyl)decahydropyrrolo[3,2-b]azepine]
inhibition at 0.01 µM [1]: 56.7%
inhibition at 0.1 µM [1]: 91.4%
inhibition at 0.1 µM [2]: 58%
inhibition at 0.1 µM [3]: 96.9%

Compound: Clc1ccc(CN2CCCC[C@H]3NCC[C@H]32)cc1 [(R,R)-58, (3aR,8aR)-4-(4-Chlorobenzyl)decahydropyrrolo[3,2-b]azepine]
inhibition at 0.01 µM [1]: -15.2%
inhibition at 0.1 µM [1]: 6.4%
inhibition at 0.1 µM [2]: 12%
inhibition at 0.1 µM [3]: 78.2%

Compound: C1CCC2NCCCCC2NC1 (stereo not shown) [4b, Dodecahydroazepino[3,2-b]azepine]
inhibition at 10 µM [1]: -7.1%
inhibition at 10 µM [2]: -0.5%
inhibition at 10 µM [3]: -1%

Compound: (3aR,8aR)-4-(3,5-Dichlorobenzyl)decahydropyrrolo[3,2-b]azepine [(R,R)-63]
% Inhibition @ 10 nM on NET [1]: 63.4%
% Inhibition @ 100 nM on NET [1]: 93.7%
% Inhibition @ 100 nM on DAT [2]: 89%
% Inhibition @ 100 nM on SERT [3]: 99.7%
